This passage reports T/C results from PubChem BioAssay AID248 (DTP/NCI, 2004).

Values joined by “and” are separate entries in the source; they are usually repeats but may differ in a detail not shown here. Equal entries are not always repeated. Inconclusive results and toxic doses are left out.

The test system of this assay is L1210 leukemia ip in BDF1 mice, survival T/C. The experiment in a line: NCI In Vivo Anticancer Drug Screen. Data for tumor model L1210 Leukemia (intraperitoneal) in B6D2F1 (BDF1) mice. Particulars: endpoint: mean survival time, higher = longer survival. In short, it runs like this: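 Tumor cells were implanted, animals were treated, and survival was followed. The result divides the treated measurement by the vehicle-control measurement.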

Setting [1] is: dose: 50.0 mg/kg/injection, schedule: Q01DX001 (ip), vehicle: carboxymethylcellulose (CMC).
The mark [2] stands for this setting: dose: 100.0 mg/kg/injection, schedule: Q04DX003 (ip), vehicle: Klucel (hydroxypropylcellulose) (HPC).
Where [3] appears, read: dose: 100.0 mg/kg/injection, schedule: Q01DX009 (ip), vehicle: Klucel (hydroxypropylcellulose) (HPC).
Setting [4] is: dose: 200.0 mg/kg/injection, schedule: Q01DX009 (ip), vehicle: Klucel (hydroxypropylcellulose) (HPC).
Setting [5] is: dose: 400.0 mg/kg/injection, schedule: Q01DX009 (ip), vehicle: Klucel (hydroxypropylcellulose) (HPC).

Regarding `C=CCn1c2ccccc2c2c(C)c3cnccc3c(C)c21`, the T/C by setting is: (dose: 25.0 mg/kg/injection, schedule: Q01DX009 (ip), vehicle: saline with Tween-80) 97 % of control; (dose: 37.5 mg/kg/injection, schedule: Q04DX003 (ip), vehicle: saline) 111 % of control; (dose: 50.0 mg/kg/injection, schedule: Q01DX009 (ip), vehicle: saline with Tween-80) 102 % of control; (dose: 50.0 mg/kg/injection, schedule: Q04DX003 (ip), vehicle: saline with Tween-80) 119 % of control; (dose: 75.0 mg/kg/injection, schedule: Q01DX009 (ip), vehicle: saline with Tween-80) 186 % of control; (dose: 75.0 mg/kg/injection, schedule: Q04DX003 (ip), vehicle: saline) 163 % of control. Besides, the T/C runs as follows: (dose: 100.0 mg/kg/injection, schedule: Q01DX009 (ip), vehicle: saline with Tween-80) 111 % of control; (dose: 125.0 mg/kg/injection, schedule: Q04DX003 (ip), vehicle: saline with Tween-80) 184 % of control; (dose: 150.0 mg/kg/injection, schedule: Q01DX009 (ip), vehicle: saline with Tween-80) 172 % of control; (dose: 300.0 mg/kg/injection, schedule: Q04DX003 (ip), vehicle: saline) 156 % of control.

`c1ccc(CC(Cc2ccccc2)=[N+]2C3CCCC2CC3)cc1`: the T/C runs as follows: (dose: 100.0 mg/kg/injection, schedule: Q04DX003 (ip), vehicle: saline) 92 % of control; (dose: 200.0 mg/kg/injection, schedule: Q04DX003 (ip), vehicle: saline) 101 % of control; (dose: 400.0 mg/kg/injection, schedule: Q04DX003 (ip), vehicle: saline) 111 % of control.

As for `Oc1ccc(Br)cc1C=Nc1ccccc1`, the T/C was 96 % of control (dose: 100.0 mg/kg/injection, schedule: Q04DX002 (ip), vehicle: saline with Tween-80); 104 % of control (dose: 200.0 mg/kg/injection, schedule: Q04DX002 (ip), vehicle: saline with Tween-80); 100 % of control (dose: 400.0 mg/kg/injection, schedule: Q04DX002 (ip), vehicle: saline with Tween-80).

Take `O=C(CNNc1ccc([N+](=O)[O-])cn1)Nc1ccc(S(=O)(=O)c2ccc(NC(=O)CNNc3ccc([N+](=O)[O-])cn3)cc2)cc1`: the T/C was 91 % of control (dose: 10.0 mg/kg/injection, schedule: Q01DX Z (ip), vehicle: methylcellulose (MC)); 95 % of control (dose: 15.0 mg/kg/injection, schedule: Q01DX Z (ip), vehicle: methylcellulose (MC)); 94 % of control (dose: 22.5 mg/kg/injection, schedule: Q01DX Z (ip), vehicle: methylcellulose (MC)).

In the case of `CCCCCCN(CCCCCC)CC(=O)NCCCN1CCN(CCCNC(=O)CN(CCCCCC)CCCCCC)CC1`, the T/C (dose: 12.5 mg/kg/injection, schedule: Q01DX001 (ip), vehicle: carboxymethylcellulose (CMC)) was 105 % of control; the T/C (dose: 22.0 mg/kg/injection, schedule: Q01DX001 (ip), vehicle: carboxymethylcellulose (CMC)) is 98 % of control and 104 % of control; the T/C (dose: 25.0 mg/kg/injection, schedule: Q01DX001 (ip), vehicle: carboxymethylcellulose (CMC)) is 100 % of control; the T/C (dose: 33.0 mg/kg/injection, schedule: Q01DX001 (ip), vehicle: carboxymethylcellulose (CMC)) was 95 % of control and 100 % of control; the T/C under setting [1] was 98 % of control and 101 % of control.

In the case of `ClC1C(Cl)C(Cl)C(Cl)C(Cl)C1Cl` (configuration not stated), the T/C is, setting by setting: (dose: 50.0 mg/kg/injection, schedule: Q01DX009 (ip), vehicle: saline) 103 % of control; (dose: 100.0 mg/kg/injection, schedule: Q01DX009 (ip), vehicle: saline) 103 % of control; (dose: 200.0 mg/kg/injection, schedule: Q01DX009 (ip), vehicle: saline) 108 % of control.

As for `CN(NC(=O)c1ccccc1)C(=O)c1ccccc1`, the T/C is 106 % of control (dose: 12.5 mg/kg/injection, schedule: Q04DX003 (ip), vehicle: Klucel (hydroxypropylcellulose) (HPC)); 104 % of control (dose: 25.0 mg/kg/injection, schedule: Q04DX003 (ip), vehicle: Klucel (hydroxypropylcellulose) (HPC)); 103 % of control (dose: 50.0 mg/kg/injection, schedule: Q04DX003 (ip), vehicle: Klucel (hydroxypropylcellulose) (HPC)); 108 % of control under setting [2]; 100 % of control (dose: 130.0 mg/kg/injection, schedule: Q04DX003 (ip), vehicle: Klucel (hydroxypropylcellulose) (HPC)); 103 % of control (dose: 200.0 mg/kg/injection, schedule: Q04DX003 (ip), vehicle: Klucel (hydroxypropylcellulose) (HPC)). The T/C (dose: 300.0 mg/kg/injection, schedule: Q04DX003 (ip), vehicle: Klucel (hydroxypropylcellulose) (HPC)) is 113 % of control.

Turning to `C(=N\Nc1nc2ccccc2s1)/c1cccnc1`, the T/C by setting is: under setting [3], 98 % of control; under setting [4], 98 % of control; under setting [5], 101 % of control.

`Cc1ccc(NCCN(C)C)c2c(=O)c3ccccc3sc12`: the T/C is, setting by setting: (dose: 9.3 mg/kg/injection, schedule: Q01DX Z (ip), vehicle: saline) 104 % of control; (dose: 14.0 mg/kg/injection, schedule: Q01DX Z (ip), vehicle: saline) 108 % of control; (dose: 21.0 mg/kg/injection, schedule: Q01DX Z (ip), vehicle: saline) 118 % of control; (dose: 28.0 mg/kg/injection, schedule: Q01DX Z (ip), vehicle: saline) 117 % of control; (dose: 42.0 mg/kg/injection, schedule: Q01DX Z (ip), vehicle: saline) 163 % of control; (dose: 50.0 mg/kg/injection, schedule: Q01DX001 (ip), vehicle: saline) 101 % of control. Further, the T/C was 115 % of control (dose: 84.0 mg/kg/injection, schedule: Q01DX Z (ip), vehicle: saline); 100 % of control (dose: 89.0 mg/kg/injection, schedule: Q01DX001 (ip), vehicle: saline); 101 % of control (dose: 93.0 mg/kg/injection, schedule: Q01DX Z (ip), vehicle: saline); 109 % of control (dose: 100.0 mg/kg/injection, schedule: Q01DX001 (ip), vehicle: saline); 107 % of control (dose: 100.0 mg/kg/injection, schedule: Q01DX Z (ip), vehicle: saline); 151 % of control (dose: 125.0 mg/kg/injection, schedule: Q01DX Z (ip), vehicle: carboxymethylcellulose (CMC)). Further, the T/C was 117 % of control (dose: 133.0 mg/kg/injection, schedule: Q01DX001 (ip), vehicle: saline); 155 % of control and 212 % of control (dose: 200.0 mg/kg/injection, schedule: Q01DX001 (ip), vehicle: saline).

Take `N#CCSc1ncnc2nc[nH]c12`: the T/C (dose: 15.0 mg/kg/injection, schedule: Q01DX010 (ip), vehicle: saline) is 94 % of control and 116 % of control; the T/C (dose: 30.0 mg/kg/injection, schedule: Q01DX010 (ip), vehicle: saline) is 97 % of control and 110 % of control; the T/C under setting [1] was 107 % of control; the T/C (dose: 60.0 mg/kg/injection, schedule: Q01DX010 (ip), vehicle: saline) is 118 % of control and 121 % of control; the T/C (dose: 62.5 mg/kg/injection, schedule: Q01DX Z (ip), vehicle: carboxymethylcellulose (CMC)) was 109 % of control; the T/C (dose: 76.0 mg/kg/injection, schedule: Q01DX001 (ip), vehicle: carboxymethylcellulose (CMC)) was 110 % of control. Moreover, the T/C is, setting by setting: (dose: 114.0 mg/kg/injection, schedule: Q01DX001 (ip), vehicle: carboxymethylcellulose (CMC)) 107 % of control; (dose: 171.0 mg/kg/injection, schedule: Q01DX001 (ip), vehicle: carboxymethylcellulose (CMC)) 113 % of control; (dose: 256.5 mg/kg/injection, schedule: Q01DX001 (ip), vehicle: carboxymethylcellulose (CMC)) 123 % of control.

Regarding `COc1cc2c(ccc3c4cc(OC)c(OC)cc4c[n+](C)c23)cc1O`, the T/C reads like this: (dose: 80.0 mg/kg/injection, schedule: Q01DX009 (ip), vehicle: saline) 159 % of control; under setting [2], 120 % of control; (dose: 320.0 mg/kg/injection, schedule: Q01DX009 (ip), vehicle: saline) 161 % of control; (dose: 400.0 mg/kg/injection, schedule: Q04DX003 (ip), vehicle: Klucel (hydroxypropylcellulose) (HPC)) 120 % of control.

For `Cc1cc([N+](=O)[O-])ccc1NC(=O)Nc1cccc(C(F)(F)F)c1`, the T/C is 88 % of control under setting [3], 92 % of control under setting [4] and 90 % of control under setting [5].
